Literature values, collected in patent publication US7491718B2, “Sulfonamides having antiangiogenic and anticancer activity” (Abbott Laboratories, priority 2002, dated 2009).

Biological target: type 2-methionine aminopeptidase (MetAP-2) (Homo sapiens, UniProt P50579)
Conditions: reported in Proc. Natl. Acad. Sci. USA 94: 6099-6103 (1997) and Chemistry and Biology, 4(6): 461-471 (1997)

Chain of type 2-methionine aminopeptidase (MetAP-2) (P50579 whole entry, species assumed): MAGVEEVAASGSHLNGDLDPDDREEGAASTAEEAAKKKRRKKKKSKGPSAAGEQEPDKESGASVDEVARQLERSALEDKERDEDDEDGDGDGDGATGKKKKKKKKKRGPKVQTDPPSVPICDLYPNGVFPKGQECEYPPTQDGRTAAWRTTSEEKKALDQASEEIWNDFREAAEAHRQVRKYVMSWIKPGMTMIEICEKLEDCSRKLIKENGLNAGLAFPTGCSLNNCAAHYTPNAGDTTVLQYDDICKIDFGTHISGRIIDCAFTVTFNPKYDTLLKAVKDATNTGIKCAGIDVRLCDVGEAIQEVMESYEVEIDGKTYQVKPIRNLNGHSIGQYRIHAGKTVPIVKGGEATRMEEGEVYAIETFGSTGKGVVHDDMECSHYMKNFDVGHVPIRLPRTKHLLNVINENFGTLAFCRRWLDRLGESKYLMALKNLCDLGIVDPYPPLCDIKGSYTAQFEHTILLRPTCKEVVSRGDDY

SMILES: CO[C@@H]1[C@H](OC(=O)NC(=O)CCl)CC[C@]2(CO2)[C@H]1[C@@]1(C)O[C@@H]1CC=C(C)C [AGM-1470]
- binding to MetAP-2: bind
